Measured values taken from patent EP3496534B1, “LIQUID CONCENTRATE FOR PRESERVATION” (Ashland Industries Europe GmbH, priority 2016, dated 2018).
Entries after “also recorded” stand apart in the source; their conditions may differ.

What was measured:
Type in all cases: physicochemical
[1] = Solubility of diols in fully demineralized water
[2] = Solubility of mixture A + diols; details: 10g of substance added to 90g of mixture A
Method: 10g of each of the following substances was added to 90g of mixture A to obtain solutions (Table 3).

[3] = Surface tension of mixture A with water or diols; details: for surface tension (change against addition of 10 parts of water): 10 parts added to 90 parts of mixture A, application concentration of 1% in water; for Surface tension, 1% in water, mN/m: 90.0 parts mixture A + 10.0 parts of the substance
Method: The surface tension of mixtures of 90 parts of mixture A from example 1 with 10 parts of water or diols respectively was determined (Table 5): Table 5

[4] = Solubility of various carboxylic acid salts + diols (appearance after stirring 3 h)
Method: Various carboxylic acid salts were mixed with diols in order to test whether homogenous concentrates could be obtained: […]
In example 4c, 10 g of 1-(2-ethyl hexyl) glycerol ether or of 1,2-octanediol, was added to an aqueous potassium sorbate solution in order to obtain solutions (Table 4c). Table 4c […]
In example 4e, 10g of 1-(2-ethyl hexyl) glycerol ether or of 1,2-octanediol was added to aqueous mixtures of potassium sorbate with sodium benzoate (weight ratio 1/1) in order to obtain solutions (Table 4e) Table 4e

[5] = 10.0 diol in potassium sorbate 5.0 / sodium benzoate 5.0 / water 80.0
[6] = 10.0 diol in potassium sorbate 10.0 / sodium benzoate 10.0 / water 70.0
[7] = 10.0 diol in potassium sorbate 10.0 / water 80.0
[8] = 10.0 diol in potassium sorbate 15.0 / sodium benzoate 15.0 / water 60.0
[9] = 10.0 diol in potassium sorbate 20.0 / water 70.0
[10] = 10.0 diol in potassium sorbate 22.5 / sodium benzoate 22.5 / water 45.0
[11] = 10.0 diol in potassium sorbate 30.0 / water 60.0
[12] = 10.0 diol in potassium sorbate 45.0 / water 45.0
[13] = 10.0 diol in sodium benzoate 10.0 / water 80.0
[14] = 10.0 diol in sodium benzoate 20.0 / water 70.0
[15] = 10.0 diol in sodium benzoate 30.0 / water 60.0
[16] = 10.0 diol in sodium benzoate 45.0 / water 45.0
[17] = 10.0 parts diol in potassium formate 45.0 / fully demineralized water 45.0
[18] = 10.0 parts diol in sodium propionate 30.0 / fully demineralized water 60.0

CCCCCCCCCCC(O)CO (stereo not drawn) [1,2-dodecanediol]
Solubility [1]: < 0.1% | Solubility of mixture A + diols [2]: dissolve; also recorded: clear solution

CCCCC(O)CO (stereo not drawn) [1,2-hexanediol]
Solubility [1]: Unlimited | Solubility of mixture A + diols [2]: clear solution

CCCCCCC(O)CO (stereo not drawn) [1,2-octanediol]
Solubility [1]: 0.7% | surface tension (change against addition of 10 parts of water) [3]: significantly decreased | Surface tension, 1% in water, mN/m [3]: 44.7 mN/m | Appearance of solution after stirring during 3 h [4, 5]: 2 phases | Appearance of solution after stirring during 3 h [4, 6]: can dissolve; also recorded: clear | Appearance of the solution after stirring during 3h [4, 7]: 2 phases | Appearance of solution after stirring during 3 h [4, 8]: can dissolve; also recorded: clear | Appearance of the solution after stirring during 3h [4, 9]: can dissolve; also recorded: clear | Appearance of solution after stirring during 3 h [4, 10]: can dissolve; also recorded: clear | Appearance of the solution after stirring during 3h [4, 11]: can dissolve; also recorded: clear | Appearance of the solution after stirring during 3h [4, 12]: can dissolve; also recorded: clear | Appearance of solution after stirring during 3 h [4, 13]: 2 phases | Appearance of solution after stirring during 3 h [4, 14]: can dissolve; also recorded: clear | Appearance of solution after stirring during 3 h [4, 15]: can dissolve; also recorded: clear | Appearance of solution after stirring during 3 h [4, 16]: can dissolve; also recorded: clear | Appearance after stirring for 3 h [4, 17]: can dissolve neither; also recorded: not dissolved, 2 phases | Appearance after stirring for 3 h [4, 18]: can dissolve neither; also recorded: not dissolved, 2 phases | Solubility of mixture A + diols [2]: clear solution

CCCCC(CC)COCC(O)CO (stereo not drawn) [1-(2-ethylhexyl) glycerol ether]
Solubility [1]: 0.1% | surface tension (change against addition of 10 parts of water) [3]: significantly decreased | Surface tension, 1% in water, mN/m [3]: 35.6 mN/m | Appearance of solution after stirring during 3 h [4, 5]: 2 phases | Appearance of solution after stirring during 3 h ([4]; 10.0 diol in potassium sorbate 7.5 / sodium benzoate 7.5 / water 75.0): 2 phases | Appearance of solution after stirring during 3 h [4, 6]: can dissolve | Appearance of solution after stirring during 3 h ([4]; 10.0 diol in potassium sorbate 10.0 / sodium benzoate 10.0 / water 70.0, listed as 1-(2-ethylhexyl)-glycerol ether): clear | Appearance of the solution after stirring during 3h [4, 7]: 2 phases | Appearance of solution after stirring during 3 h [4, 8]: can dissolve | Appearance of solution after stirring during 3 h ([4]; 10.0 diol in potassium sorbate 15.0 / sodium benzoate 15.0 / water 60.0, listed as 1-(2-ethylhexyl)-glycerol ether): clear | Appearance of the solution after stirring during 3h ([4]; 10.0 diol in potassium sorbate 15.0 / water 75.0): 2 phases | Appearance of the solution after stirring during 3h [4, 9]: clear | Appearance of the solution after stirring during 3h ([4]; 10.0 diol in potassium sorbate 20.0 / water 70.0, listed as 1-(2-ethylhexyloxy)glycerol ether): can dissolve | Appearance of solution after stirring during 3 h [4, 10]: can dissolve | Appearance of solution after stirring during 3 h ([4]; 10.0 diol in potassium sorbate 22.5 / sodium benzoate 22.5 / water 45.0, listed as 1-(2-ethylhexyl)-glycerol ether): clear | Appearance of the solution after stirring during 3h [4, 11]: clear | Appearance of the solution after stirring during 3h ([4]; 10.0 diol in potassium sorbate 30.0 / water 60.0, listed as 1-(2-ethylhexyloxy)glycerol ether): can dissolve | Appearance of the solution after stirring during 3h [4, 12]: clear | Appearance of the solution after stirring during 3h ([4]; 10.0 diol in potassium sorbate 45.0 / water 45.0, listed as 1-(2-ethylhexyloxy)glycerol ether): can dissolve | Appearance of solution after stirring during 3 h [4, 13]: 2 phases | Appearance of solution after stirring during 3 h ([4]; 10.0 diol in sodium benzoate 15.0 / water 75.0): 2 phases | Appearance of solution after stirring during 3 h [4, 14]: can dissolve; also recorded: clear | Appearance of solution after stirring during 3 h [4, 15]: can dissolve; also recorded: clear | Appearance of solution after stirring during 3 h [4, 16]: can dissolve; also recorded: clear | Appearance after stirring for 3 h [4, 17]: can dissolve neither; also recorded: not dissolved, 2 phases | Appearance after stirring for 3 h [4, 18]: not dissolved, 2 phases | Appearance after stirring for 3 h ([4]; 10.0 parts diol in sodium propionate 30.0 / fully demineralized water 60.0, listed as 1-(2-ethylhexyl)glycerol ether): can dissolve neither | Solubility of mixture A + diols [2]: clear solution

CCCCCCCCCCCCOCC(O)CO (stereo not drawn) [1-dodecyl glycerol ether]
Solubility [1]: < 0.1% | Solubility of mixture A + diols [2]: clear solution

OCC(O)CO [Glycerol (85%), Glycerol, reference compound]
surface tension (change against addition of 10 parts of water) [3]: not observed | Surface tension, 1% in water, mN/m [3]: 72.2 mN/m

CC(O)CO (stereo not drawn) [Propylene glycol, reference compound]
surface tension (change against addition of 10 parts of water) [3]: not observed | Surface tension, 1% in water, mN/m [3]: 72.3 mN/m

O [Water]
Surface tension, 1% in water, mN/m [3]: 71.9 mN/m
